Source: patent publication US20260232692A1, “Methods Of Treating Cancer Using BCL-2 Inhibitors With Iron And Heme Supplementation Therapies” (Emory University, priority 2023, published 2026)
“Also recorded” adds a separate entry of the source.

What was measured:
[1] = tested on: VS t(11; 14) cell lines; assay: Rescue of FAC mediated cell death in VS t(11;14) cell lines; type: cell-based; conditions: in the presence and absence of venetoclax
Experimental: Intracellular iron overload, ROS mediated lipid peroxidation, and loss of GSH/GPX4 mediated antioxidant defenses are all features of ferroptosis. Experiments were performed to determine whether FAC supplementation in VS t(11; 14) MM promotes cell death via ferroptosis. VS t(11; 14) cell lines were treated with a ferrostatin (Fn-1), a synthetic antioxidant that acts via a reductive mechanism to prevent damage to membrane lipids and thereby, inhibits cell death. Inhibiting ferroptosis was able to fully rescue the cell death induced by FAC both in the presence and absence of venetoclax (FIG. 8B). Boc-D-FMK is a caspase inhibitor that inhibits apoptosis.

[2] = tested on: venetoclax sensitive (VS) multiple myeloma (MM) cell lines; assay: Hemin/5-ALA supplementation and Ven sensitivity in VS MM cell lines, Annexin V/DAPI flow cytometry; type: cell-based; conditions: 50 μM Hemin/5-ALA pre-treatment 24 hours, then Ven 24 hrs
Experimental: Cell death/viability was assessed by Annexin V/DAPI flow cytometric staining.
To test the necessity for reduced heme synthesis for Ven sensitivity in t(11; 14) MM, Ven treated cells were supplemented with either the heme synthesis precursor 5-ALA or hemin (oxidized heme and active ingredient of clinically approved Panhematin™).

[3] = tested on: MEK-ERK-mTORC1 signaling; assay: MEK-ERK-mTORC1 signaling in whole cell lysates of VS MM treated with hemin; type: cell-based; conditions: 50 μM hemin and/or 0.05 μM Ven for 18 h
Experimental: Whole cell lysates of indicated lines were treated with 50 μM hemin and/or 0.05 μM Ven for 18 h. Indicated VS cells were treated with 50 µM hemin and 0.05 μM Ven and RAF, MEK, or ERK-inhibitors. Cell death/viability was evaluated by Annexin V/DAPI flow cytometric staining.

[4] = tested on: venetoclax sensitive acute myeloid leukemia (AML) cell lines; assay: Hemin supplementation and venetoclax sensitivity in AML cell lines; type: cell-based
[5] = tested on: iron homeostasis-related protein in VS t(11; 14) cell lines
Experimental: FIG. 8B show data on the expression of iron homeostasis-related protein in whole cell lysates supplemented with 500 μM FAC for 72 h in indicated cell lines by immunoblotting using actin as a loading control. Indicated cell lines were treated with a ferroptotic inhibitor, ferrostatin (Fn-1).
(§1) Free or excess intracellular iron is a potent inducer of reactive oxygen species (ROS) and oxidative stress.

[6] = tested on: reactive oxygen species (ROS) in VS t(11; 14) MM; conditions: FAC treated VS t(11;14) MM
Text: as §1

[7] = tested on: VS t(11; 14) MM cell lines; assay: Growth/viability of VS t(11;14) MM cell lines under iron chelation or supplementation (CellTiter-Glo 3D); type: cell-based; conditions: iron chelation with DFO or supplementation with FAC (500 μM FAC up to 96 h, FIG. 7A)
Experimental: Cells were treated with 500 μM FAC up to 96 h and assessed for viability using CellTiter-Glo® 3D Cell Viability Assay.
Iron is a cofactor for the maintenance of ETC activity. The impact of modulating iron levels either by chelation with deferoxamine (DFO) or supplementation with ferric ammonium citrate (FAC) was assessed in a panel of VS t(11; 14) and VR non t(11; 14) MM cell lines.

[8] = tested on: t(11; 14) patient sample; conditions: FAC 250 μM and 500 μM, venetoclax 0.001, 0.005 and 0.01 μM, FIG. 7C

`COC(=O)CC(NC(=O)OC(C)(C)C)C(=O)CF` [Boc-D-FMK] was tested, and the “rescue of cell death induced by FAC” value [1] was “not able to rescue”.

For `CCOC(=O)c1ccc(NC2CCCCC2)c(N)c1` [ferrostatin], the “rescue of cell death induced by FAC” value [1] was “sufficient to mitigate; also recorded: fully rescue”.

For `C=CC1=C(C)c2cc3[n-]c(cc4[n-]c(cc5nc(cc1n2)C(C)=C5C=C)c(C)c4CCC(=O)O)c(CCC(=O)O)c3C.[Fe+2]` [hemin, [7,12-diethenyl-3,8,13,17-tetramethyl-21H,23H-porphine-2,18-dipropanoato(2-)-N21,N22,N23,N24] iron], the “reversal (rescue) of Ven sensitivity” value [2] was “significantly reversed; also recorded: reverses”, the MEK-ERK-mTORC1 signaling [3] was “restores” and the “reversal of venetoclax sensitivity” value [4] was “reverses”.

In the case of ferric ammonium citrate [FAC], the “cystine-glutamate antiporter SLC7A11 expression” value ([5]; FAC treatment) is reported as “not altered”, the “iron importer TFR1 expression” value ([5]; FAC treatment) is reported as “reduction” and the “iron storage protein ferritin expression” value ([5]; FAC treatment) is reported as “increase”. For the same compound, the “glutathione peroxidase 4 (GPX4) protein expression” value ([5]; all VS t(11;14) cell lines, 500 μM FAC for 72 h) was “consistent reduction”, the “cytosolic ROS levels” value [6] was “not in cytosolic ROS levels” and the “mitochondrial ROS” value ([6]; 48 h) was “significant elevation”. The “effect on growth/proliferation of VS cell lines” value [7] was “specifically inhibit the proliferation; also recorded: growth suppressive effect” and the “sensitivity to venetoclax with iron supplementation” value [8] was “A similar response”.
